Results on six molecules are retold here after US9951024B2, “Small-molecule inhibitors targeting G-protein-coupled Rho guanine nucleotide exchange factors” (Children's Hospital Medical Center, priority 2013, dated 2018).

Experiment [1] has as its system RhoA-GTP. The experiment in a line: RhoA activity in MCF7-derived mammospheres. It counts as cell-based. The conditions noted are these: alone at 10 μM. The method, then:
The information in FIG. 5 was obtained by the following procedures. (A) Y16, G04, or G04+Y16 combination inhibits MCF7 breast cell growth. MCF7 cells were plated at 1.5×10^4/24 well in the presence of Y16, G04, or G04+Y16 combination. Cell numbers were determined at the indicated times. (B) MCF7 cells were subjected migration assays in the presence of Y16, G04, or G04+Y16 combination. (C) The invasive activities were assayed in a Matrigel-coated transwell. (D) Y16, G04, or G04+Y16 combination inhibits RhoA and its downstream signaling activities in MCF7-derived mammospheres. (Upper) MCF7-derived mammospheres were treated with Y16, G04, or G04+Y16 combination at the indicated concentrations. Spheres were collected, and the RhoA activity was examined. Relative amounts of GTP-bound form of RhoA were quantified by densitometry measurements and normalized to those of the untreated cells. (Lower) Western blots are of p-MLC of MCF7-derived mammospheres. Y16, G04, or G04+Y16 combination inhibits MCF-7 cell-derived mammosphere formation. (E) MCF-7 cells were treated with Y16, G04, or G04+Y16 combination at the indicated concentrations for 24 h in serum-free media. MCF7 cells were dissociated to single cells with trypsin and cultured for 10 d at the density of 2×10^4/mL in suspension in the media containing G04 or Y16 at the indicated concentration. Photographs were taken after a 10-d culture. […]

In the next experiment the target is RhoA (Homo sapiens, UniProt P61586). The conditions noted are these: reference 26; cited from earlier work.
The next experiment concerns the target T1, RhoA-LARG interaction (Homo sapiens, UniProt Q9NZN5).
T1 construct: human LARG (residues 765-1,138); made in house; host or cells: E. coli BL21 (DE3) (LARG), E. coli DH5α (GST-RhoA)
T1 sequence (Q9NZN5 765-1138 limits assumed): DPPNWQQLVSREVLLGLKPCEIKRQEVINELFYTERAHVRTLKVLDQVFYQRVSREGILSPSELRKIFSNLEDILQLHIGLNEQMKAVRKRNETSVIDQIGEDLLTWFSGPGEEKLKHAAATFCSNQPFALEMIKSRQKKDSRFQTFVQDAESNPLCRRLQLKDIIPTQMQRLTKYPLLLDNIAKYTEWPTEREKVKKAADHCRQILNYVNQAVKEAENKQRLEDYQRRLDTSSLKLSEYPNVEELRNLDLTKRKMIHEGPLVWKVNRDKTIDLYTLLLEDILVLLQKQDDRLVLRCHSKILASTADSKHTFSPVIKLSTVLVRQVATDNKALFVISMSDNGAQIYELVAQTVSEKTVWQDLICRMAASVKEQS
Description: In vitro complex formation assay, LARG binding to RhoA. The conditions noted are these: for inhibition at 100 µM: read-out: Relative binding inhibition, %. The method, then: About 1 μg of (His)6-tagged LARG DH-PH was incubated with 1 μg of EDTA-treated GSTRhoA or Cdc42 or GST alone in a binding buffer [20 mM Tris.HCl (pH 7.6), 100 mM NaCl, 1% BSA, 1% Triton X-100, 1 mM MgCl2] containing 15 μL of suspended glutathione-agarose beads. Y16 or other chemicals were added in the incubation buffer at the indicated concentrations. After an incubation at 4° C. for 1 h under constant agitation, the glutathione beads were washed twice with the binding buffer. The amount of (His)6-tagged protein coprecipitated with GST-fusion bound beads was detected by anti-His Western blotting. Similarly, cell lysates containing myc-Tiam1, (His)6-Cdc42, (His)6-TrioN, or (His)6-RhoA were mixed with purified GST-Rac1, GST-Cdc42, GST-mDia, GST-PKN, GSTROCKII, GST-p190GAP, or GST alone, and pairwise association was assessed in the presence or absence of indicated amount of Y16 and/or Rhosin.
The information in FIG. 4 was obtained by the following procedures. (A) Dose-dependent specific inhibition of LARG binding to RhoA by Y16, G04, or G04+Y16 combination at varying concentrations. (B) NIH 3T3 cells were treated with Y16, G04, or G04+Y16 combination at the indicated concentrations for 24 h in serum-free media. Cells were subsequently stimulated with 10% calf serum for 15 min and were subjected to GST-Rhotekin effector domain pull-down assays, and the activities of RhoA were examined. Relative amounts of GTP-bound form of the GTPases were quantified by densitometry measurements and normalized to those of the unstimulated cells. (C) NIH 3T3 cells were treated with Y16, G04, or G04+Y16 combination at the indicated concentrations for 24 h in serum-free media. Cells were subsequently stimulated with 10% calf serum for 15 min and were subjected to GST-Rhotekin and GST-PAK1 effector domain pull-down assays, and the activities of RhoA, Cdc42, and Rac1 were examined. Relative amounts of GTP-bound form of the GTPases were quantified by densitometry measurements and normalized to those of the nontreated cells. (D) NIH 3T3 cells were treated with Y16, G04, or G04+Y16 combination of the indicated concentrations in serum-free DMEM medium prior to stimulation with LPA (20 ng/mL) for 10 min. The cells were stained with rhodamine-phalloidin to reveal F-actin structures.
The inhibitory effects of the analogs were tested in a complex formation assay. (His)6-tagged LARG PH-DH (1 μg) was incubated with GST alone or GST-RhoA conjugated with glutathione agarose beads in the presence or absence of 100 μM indicated compounds. After an incubation at 4° C. for 1 h, the beads-associated (His)6-LARG PH-DH was detected by anti-His Western blotting. The relative inhibition of each analog was normalized to the inhibitory effect of Y16 of the same concentration.

Experiment [2] deals with RhoA-GTP. The experiment in a line: Endogenous Rho GTPase activity assay, RhoA-GTP in NIH 3T3 cells. It counts as cell-based. The conditions noted are these: Mus musculus, NIH3T3, serum stimulated, acting alone at 30 μM, read-out: inhibition of RhoA-GTP content. The protocol:
The information in FIG. 3 was obtained by the following procedures. (A and B) NIH 3T3 cells were treated with Y16 at the indicated concentrations for 24 h in serum-free media. Cells were subsequently stimulated with 10% calf serum for 15 min and were subjected to GST-Rhotekin or GST-PAK1 effector domain pull-down assays, and the activities of RhoA, Cdc42, and Rac1 were examined. Relative amounts of GTP-bound form of the GTPases were quantified by densitometry measurements and normalized to those of the unstimulated cells. […]
NIH 3T3 cells, MCF7 cells, or HME cells were grown in log phase in a 10-cm dish or a six-well dish, and were starved in serum-free medium in the presence or absence of Y16 at indicated concentrations for 24 h and were subsequently stimulated with 10% calf serum or FBS for 15 min. […] Lysates were clarified, the protein concentrations were normalized, and the GTP-bound RhoA, Rac1, or Cdc42 in the lysates were measured by respective anti-RhoA, Rac1, and Cdc42 Western blotting of the effector domain pull downs.
The information in FIG. 4 was obtained by the following procedures. […] Relative amounts of GTP-bound form of the GTPases were quantified by densitometry measurements and normalized to those of the unstimulated cells. […] Relative amounts of GTP-bound form of the GTPases were quantified by densitometry measurements and normalized to those of the nontreated cells. […]

Setting [3] is: 100 μM compound, normalized to the inhibitory effect of Y16 of the same concentration.

RhoA, sequence (P61586 whole entry): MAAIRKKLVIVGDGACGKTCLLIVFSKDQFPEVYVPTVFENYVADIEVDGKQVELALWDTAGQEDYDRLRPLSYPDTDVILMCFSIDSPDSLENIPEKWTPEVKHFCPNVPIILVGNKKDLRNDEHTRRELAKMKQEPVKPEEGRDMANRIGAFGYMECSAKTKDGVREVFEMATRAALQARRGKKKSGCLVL

Consider `N[C@H](Cc1c[nH]c2ccccc12)C(=O)N/N=C/c1ccc2nccnc2c1` [Compound G04, (2R)-2-amino-3-(1Hindol-3-yl)-N′-[(1E)-quinoxalin-6-ylmethylidene]propanehydrazide], for which the inhibition at 10 µM with RhoA-GTP [1] is approximately 50%. Also, the “binding affinity to RhoA” value at RhoA was “micromolar”. For the same molecule, the 50% inhibitory concentration (IC50) on RhoA-LARG interaction (inhibitors alone or combined together, read-out: IC50 for inhibition of RhoA binding to LARG) was approximately 10 µM. Also, in the experiment on RhoA-GTP [2], the inhibition at 30 µM was approximately 80%.

For the molecule `O=C1NN(c2ccccc2)C(=O)/C1=C/c1ccc(OCc2ccccc2)cc1` [Compound 1], at RhoA-LARG interaction (100 μM compound, normalized to the inhibitory effect of Y16 of the same concentration, 100 µM), the “Relative binding inhibition, %” value was 27.12%. The inhibition at 100 µM on RhoA-LARG interaction (setting [3]) came out at 27.1%.

As for `COc1cc(/C=C2/C(=O)NN(c3ccccc3)C2=O)ccc1O` [Compound 2], the inhibition at 100 µM on RhoA-LARG interaction (setting [3]) came out at 13%.

Regarding `COc1cc(/C=C2/C(=O)NN(c3ccccc3)C2=O)cc(Br)c1OCCOc1ccc(C)cc1` [Compound 4], the inhibition at 100 µM at RhoA-LARG interaction (setting [3]) came out at 13.8%.

Consider `O=C1NN(c2ccccc2)C(=O)/C1=C\C1=NCc2ccccc21` [Compound 3], for which, on RhoA-LARG interaction (setting [3]), the inhibition at 100 µM is 6.75%.

As for `O=C1/C(=C\c2ccccc2OCc2ccccc2)CNN1c1ccc(Br)cc1` [Compound 5], the inhibition at 100 µM at RhoA-LARG interaction (setting [3]) came to 7.34%.

What is called inhibition is the share of the control response that was lost under treatment. The IC50 is the point on the concentration scale where inhibition reaches its midpoint.
